Key:
Type in all cases: ADME
Set-up in all cases: dose 2 uM
Details in all cases: 2 µM
[1] = target: T1, Nitroreductase-like protein (Bacteroides thetaiotaomicron, UniProt Q8AB93); test: (§1) The drug is tested on Bacteroides thetaiotaomicron strain: VPI-5482 for biotransformation. The drug concentrations were measured before and after a 12-h incubation by liquid-chromatography-coupled mass spectrometry (LC–MS)
T1 sequence (Q8AB93 whole entry): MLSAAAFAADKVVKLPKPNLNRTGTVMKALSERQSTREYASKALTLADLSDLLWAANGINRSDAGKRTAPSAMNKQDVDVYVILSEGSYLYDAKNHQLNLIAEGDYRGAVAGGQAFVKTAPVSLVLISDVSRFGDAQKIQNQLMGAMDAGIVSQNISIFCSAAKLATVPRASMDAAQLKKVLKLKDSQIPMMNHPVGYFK

[2] = target: T2, NADH dehydrogenase/NAD(P)H nitroreductase (Bacteroides thetaiotaomicron, UniProt Q8A8L9); test: as §1
T2 sequence (Q8A8L9 whole entry): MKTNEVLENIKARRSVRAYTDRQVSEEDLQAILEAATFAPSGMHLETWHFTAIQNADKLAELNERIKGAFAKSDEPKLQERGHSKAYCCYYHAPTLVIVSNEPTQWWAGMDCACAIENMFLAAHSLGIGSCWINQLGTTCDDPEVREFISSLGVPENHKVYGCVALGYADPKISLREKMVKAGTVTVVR

[3] = target: T3, Lipolytic enzyme, G-D-S-L family (Bacteroides thetaiotaomicron, UniProt Q8A0E6); test: as §1
T3 sequence (Q8A0E6 whole entry): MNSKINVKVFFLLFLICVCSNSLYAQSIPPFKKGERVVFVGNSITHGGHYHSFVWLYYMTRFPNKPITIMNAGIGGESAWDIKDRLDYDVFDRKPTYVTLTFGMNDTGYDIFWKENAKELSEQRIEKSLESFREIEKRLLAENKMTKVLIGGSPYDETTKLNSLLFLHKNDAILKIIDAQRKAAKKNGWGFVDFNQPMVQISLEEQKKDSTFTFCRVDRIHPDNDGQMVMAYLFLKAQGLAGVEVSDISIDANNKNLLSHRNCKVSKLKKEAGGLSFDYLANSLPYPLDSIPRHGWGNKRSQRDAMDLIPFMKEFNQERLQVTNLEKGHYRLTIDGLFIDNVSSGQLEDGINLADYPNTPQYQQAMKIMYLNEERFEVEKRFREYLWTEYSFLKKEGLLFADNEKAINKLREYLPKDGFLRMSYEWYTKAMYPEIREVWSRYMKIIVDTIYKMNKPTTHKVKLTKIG

[4] = target: T4, Sialic acid-specific 9-O-acetylesterase (Bacteroides thetaiotaomicron, UniProt Q8A0D0); test: as §1
T4 sequence (Q8A0D0 whole entry): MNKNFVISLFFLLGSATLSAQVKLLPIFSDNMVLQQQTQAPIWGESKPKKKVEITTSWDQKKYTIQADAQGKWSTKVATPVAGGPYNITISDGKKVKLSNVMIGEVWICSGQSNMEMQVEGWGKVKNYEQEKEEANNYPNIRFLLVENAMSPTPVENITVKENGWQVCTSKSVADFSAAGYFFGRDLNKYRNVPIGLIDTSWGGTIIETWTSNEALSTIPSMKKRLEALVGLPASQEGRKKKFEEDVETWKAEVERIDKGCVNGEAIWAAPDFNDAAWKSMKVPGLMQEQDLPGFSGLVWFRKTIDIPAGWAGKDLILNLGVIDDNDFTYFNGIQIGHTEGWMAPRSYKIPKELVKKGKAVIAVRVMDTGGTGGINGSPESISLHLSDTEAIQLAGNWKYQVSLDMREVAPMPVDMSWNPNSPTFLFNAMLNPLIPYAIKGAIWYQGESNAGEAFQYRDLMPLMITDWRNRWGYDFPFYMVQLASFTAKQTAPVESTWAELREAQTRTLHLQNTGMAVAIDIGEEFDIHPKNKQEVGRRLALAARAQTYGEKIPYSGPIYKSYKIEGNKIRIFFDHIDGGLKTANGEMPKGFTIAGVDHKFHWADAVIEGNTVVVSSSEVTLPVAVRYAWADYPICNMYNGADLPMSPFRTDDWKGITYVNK

Acylhydrolase = target: T5, Acylhydrolase (Bacteroides thetaiotaomicron, UniProt Q8AA96); test: as §1
T5 sequence (Q8AA96 whole entry): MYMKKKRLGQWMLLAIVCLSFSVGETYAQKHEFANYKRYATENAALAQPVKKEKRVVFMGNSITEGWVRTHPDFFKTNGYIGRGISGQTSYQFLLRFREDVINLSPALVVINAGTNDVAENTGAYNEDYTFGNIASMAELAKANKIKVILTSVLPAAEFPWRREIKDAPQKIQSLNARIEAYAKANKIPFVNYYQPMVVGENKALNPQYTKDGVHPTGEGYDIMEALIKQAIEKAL

Xylanase = target: T6, Xylanase (Bacteroides thetaiotaomicron, UniProt Q8A8H5); test: as §1
T6 sequence (Q8A8H5 whole entry): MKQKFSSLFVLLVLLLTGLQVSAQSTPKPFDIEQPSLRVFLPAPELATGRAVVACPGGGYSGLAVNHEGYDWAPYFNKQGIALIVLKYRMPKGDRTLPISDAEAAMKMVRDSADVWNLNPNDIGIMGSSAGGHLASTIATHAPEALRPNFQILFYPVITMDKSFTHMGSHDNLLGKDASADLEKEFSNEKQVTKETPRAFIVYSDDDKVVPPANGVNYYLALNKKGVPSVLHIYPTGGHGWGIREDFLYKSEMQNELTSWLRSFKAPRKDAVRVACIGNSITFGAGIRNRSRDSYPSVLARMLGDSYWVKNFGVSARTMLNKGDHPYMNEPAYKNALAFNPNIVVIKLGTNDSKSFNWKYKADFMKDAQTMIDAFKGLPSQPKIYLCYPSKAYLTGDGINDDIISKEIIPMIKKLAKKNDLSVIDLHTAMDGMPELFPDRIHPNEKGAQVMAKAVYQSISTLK

Endoglucanase E (EGE) = target: T7, Endoglucanase E (EGE) (Bacteroides thetaiotaomicron, UniProt Q8AAL9); test: as §1
T7 sequence (Q8AAL9 whole entry): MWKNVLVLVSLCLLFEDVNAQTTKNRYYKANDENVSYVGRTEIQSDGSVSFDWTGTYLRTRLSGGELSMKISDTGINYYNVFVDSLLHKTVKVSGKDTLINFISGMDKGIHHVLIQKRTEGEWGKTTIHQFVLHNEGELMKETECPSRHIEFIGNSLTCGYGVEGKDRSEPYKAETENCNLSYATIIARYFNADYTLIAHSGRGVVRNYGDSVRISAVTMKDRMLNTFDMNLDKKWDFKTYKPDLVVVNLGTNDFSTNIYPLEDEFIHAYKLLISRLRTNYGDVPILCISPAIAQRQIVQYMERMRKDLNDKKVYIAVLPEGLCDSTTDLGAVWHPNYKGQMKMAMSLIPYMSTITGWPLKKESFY

[5] = target: T8, 3-oxo-5-alpha-steroid 4-dehydrogenase (Bacteroides thetaiotaomicron, UniProt Q8A618); test: as §1
T8 sequence (Q8A618 whole entry): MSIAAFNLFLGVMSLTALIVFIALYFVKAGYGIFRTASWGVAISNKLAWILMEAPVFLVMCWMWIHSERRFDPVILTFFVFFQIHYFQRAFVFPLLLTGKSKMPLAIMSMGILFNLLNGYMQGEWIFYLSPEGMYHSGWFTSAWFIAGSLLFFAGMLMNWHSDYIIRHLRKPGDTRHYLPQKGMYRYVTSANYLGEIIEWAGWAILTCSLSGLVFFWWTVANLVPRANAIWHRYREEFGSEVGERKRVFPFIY

- Bacterial Biotransformation [1]: Compound NOT metabolized
- Bacterial Biotransformation [2]: Compound NOT metabolized
- Bacterial Biotransformation [3]: Compound NOT metabolized
- Bacterial Biotransformation [4]: Compound NOT metabolized
- Bacterial Biotransformation (Acylhydrolase): Compound NOT metabolized
- Bacterial Biotransformation (Xylanase): Compound NOT metabolized
- Bacterial Biotransformation (Endoglucanase E (EGE)): Compound NOT metabolized
- Bacterial Biotransformation [5]: Compound NOT metabolized
SMILES: C[C@]12CCC(=O)C=C1[C@@H]1C[C@@H]1[C@H]1[C@@H]3[C@@H]4C[C@@H]4[C@@]4(CCC(=O)O4)[C@@]3(C)CC[C@@H]12 [DROSPIRENONE]

From ChEMBL document CHEMBL5303573, “Mapping human microbiome drug metabolism by gut bacteria and their genes” (Nature, 2019)
